Measurements reported in article PMC6576746, “Rational discovery of dual-indication multi-target PDE/Kinase inhibitor for precision anti-cancer therapy using structural systems pharmacology” (PLoS Computational Biology, 2019).

Columns and labels:
Assay in all cases: biochemical
Set-up in all cases: DiscoverX KinomeScan competition binding assay across human kinases; per cent of control at 10 and 100 uM
FAK = target: T1, FAK (Homo sapiens, UniProt Q05397); details: competition binding, % of control; read-out: Percent Control (100 uM Levosimendan)
T1 construct: gene PTK2
How it was run: (§1)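 Binding is expressed as %control, normalised between positive and negative control signals. The compound (levosimendan) was tested at 10 μM and 100 μM in the DiscoverX KinomeScan competition binding format against human kinases.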

PIK3CA(I800L) = PIK3CA(I800L) (Homo sapiens, UniProt P42336, I800L); details: competition binding, % of control; read-out: Percent Control (100 uM Levosimendan)
How it was run: as §1

CASK = CASK (Homo sapiens, UniProt O14936); details: competition binding, % of control; read-out: Percent Control (100 uM Levosimendan)
How it was run: as §1

CLK4 = CLK4 (Homo sapiens, UniProt Q9HAZ1); details: competition binding, % of control; read-out: Percent Control (100 uM Levosimendan)
How it was run: as §1

GRK2 = GRK2 (Homo sapiens, UniProt P25098); details: competition binding, % of control; read-out: Percent Control (100 uM Levosimendan)
How it was run: as §1

ANKK1 = ANKK1 (Homo sapiens, UniProt Q8NFD2); details: competition binding, % of control; read-out: Percent Control (100 uM Levosimendan)
How it was run: as §1

MARK1 = MARK1 (Homo sapiens, UniProt Q9P0L2); details: competition binding, % of control; read-out: Percent Control (100 uM Levosimendan)
How it was run: as §1

EPHA5 = EPHA5 (Homo sapiens, UniProt P54756); details: competition binding, % of control; read-out: Percent Control (100 uM Levosimendan)
How it was run: as §1

CSK = CSK (Homo sapiens, UniProt P41240); details: competition binding, % of control; read-out: Percent Control (100 uM Levosimendan)
How it was run: as §1

CDK8 = CDK8 (Homo sapiens, UniProt P49336); details: competition binding, % of control; read-out: Percent Control (100 uM Levosimendan)
How it was run: as §1

MAK = MAK (Homo sapiens, UniProt P20794); details: competition binding, % of control; read-out: Percent Control (100 uM Levosimendan)
How it was run: as §1

EPHB6 = EPHB6 (Homo sapiens, UniProt O15197); details: competition binding, % of control
How it was run: as §1

MARK4 = MARK4 (Homo sapiens, UniProt Q96L34); details: competition binding, % of control; read-out: Percent Control (100 uM Levosimendan)
How it was run: as §1

TAK1 = target: T2, TAK1 (Homo sapiens, UniProt O43318); details: competition binding, % of control; read-out: Percent Control (100 uM Levosimendan)
T2 construct: gene MAP3K7
How it was run: as §1

AXL = AXL (Homo sapiens, UniProt P30530); details: competition binding, % of control; read-out: Percent Control (100 uM Levosimendan)
How it was run: as §1

ALK = ALK (Homo sapiens, UniProt Q9UM73); details: competition binding, % of control; read-out: Percent Control (100 uM Levosimendan)
How it was run: as §1

NIM1 = target: T3, NIM1 (Homo sapiens, UniProt Q8IY84); details: competition binding, % of control; read-out: Percent Control (100 uM Levosimendan)
T3 construct: gene NIM1K
How it was run: as §1

CSNK1G2 = CSNK1G2 (Homo sapiens, UniProt P78368); details: competition binding, % of control
How it was run: as §1

MAP4K5 = MAP4K5 (Homo sapiens, UniProt Q9Y4K4); details: competition binding, % of control; read-out: Percent Control (100 uM Levosimendan)
How it was run: as §1

[1] = read-out: Percent Control (10 uM Levosimendan)
[2] = read-out: Percent Control (100 uM Levosimendan)

Sequence of EPHB6 (O15197 whole entry): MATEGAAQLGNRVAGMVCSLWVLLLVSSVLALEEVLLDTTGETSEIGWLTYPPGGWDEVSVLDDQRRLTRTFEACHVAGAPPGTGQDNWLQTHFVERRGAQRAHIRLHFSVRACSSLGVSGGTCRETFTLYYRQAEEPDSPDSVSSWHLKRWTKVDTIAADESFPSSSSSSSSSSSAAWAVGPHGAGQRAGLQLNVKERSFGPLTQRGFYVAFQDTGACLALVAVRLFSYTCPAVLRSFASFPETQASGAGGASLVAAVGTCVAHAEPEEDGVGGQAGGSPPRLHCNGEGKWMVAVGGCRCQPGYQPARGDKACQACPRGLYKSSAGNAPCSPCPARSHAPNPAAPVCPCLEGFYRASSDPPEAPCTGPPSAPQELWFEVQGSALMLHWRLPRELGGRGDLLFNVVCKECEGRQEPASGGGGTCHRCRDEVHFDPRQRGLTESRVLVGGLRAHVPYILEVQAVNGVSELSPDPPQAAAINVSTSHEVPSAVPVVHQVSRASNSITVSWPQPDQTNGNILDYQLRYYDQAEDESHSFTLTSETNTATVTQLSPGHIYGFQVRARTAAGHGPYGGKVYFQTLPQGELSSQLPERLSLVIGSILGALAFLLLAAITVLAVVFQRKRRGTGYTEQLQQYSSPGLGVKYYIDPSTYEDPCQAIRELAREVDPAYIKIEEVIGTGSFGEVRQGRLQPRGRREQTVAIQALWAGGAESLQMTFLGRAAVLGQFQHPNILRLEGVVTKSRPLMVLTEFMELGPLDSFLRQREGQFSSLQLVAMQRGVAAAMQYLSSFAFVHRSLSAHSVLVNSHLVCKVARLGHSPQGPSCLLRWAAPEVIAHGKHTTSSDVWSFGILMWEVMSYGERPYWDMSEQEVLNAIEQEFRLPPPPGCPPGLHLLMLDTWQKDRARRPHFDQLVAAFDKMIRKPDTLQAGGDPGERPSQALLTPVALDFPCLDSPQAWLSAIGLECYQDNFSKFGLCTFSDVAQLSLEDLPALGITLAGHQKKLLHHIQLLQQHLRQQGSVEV
Sequence of CSNK1G2 (P78368 whole entry): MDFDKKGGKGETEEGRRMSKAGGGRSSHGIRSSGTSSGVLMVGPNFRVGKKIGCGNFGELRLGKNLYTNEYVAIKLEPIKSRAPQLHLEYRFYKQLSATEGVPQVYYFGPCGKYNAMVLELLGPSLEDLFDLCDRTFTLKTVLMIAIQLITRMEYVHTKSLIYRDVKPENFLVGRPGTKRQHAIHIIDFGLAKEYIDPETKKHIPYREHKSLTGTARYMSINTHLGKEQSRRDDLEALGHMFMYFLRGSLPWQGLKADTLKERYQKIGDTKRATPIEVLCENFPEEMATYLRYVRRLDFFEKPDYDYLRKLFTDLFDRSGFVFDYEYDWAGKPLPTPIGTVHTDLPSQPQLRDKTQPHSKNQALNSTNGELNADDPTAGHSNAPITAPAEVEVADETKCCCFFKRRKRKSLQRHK
Sequence of GRK2 (P25098 whole entry): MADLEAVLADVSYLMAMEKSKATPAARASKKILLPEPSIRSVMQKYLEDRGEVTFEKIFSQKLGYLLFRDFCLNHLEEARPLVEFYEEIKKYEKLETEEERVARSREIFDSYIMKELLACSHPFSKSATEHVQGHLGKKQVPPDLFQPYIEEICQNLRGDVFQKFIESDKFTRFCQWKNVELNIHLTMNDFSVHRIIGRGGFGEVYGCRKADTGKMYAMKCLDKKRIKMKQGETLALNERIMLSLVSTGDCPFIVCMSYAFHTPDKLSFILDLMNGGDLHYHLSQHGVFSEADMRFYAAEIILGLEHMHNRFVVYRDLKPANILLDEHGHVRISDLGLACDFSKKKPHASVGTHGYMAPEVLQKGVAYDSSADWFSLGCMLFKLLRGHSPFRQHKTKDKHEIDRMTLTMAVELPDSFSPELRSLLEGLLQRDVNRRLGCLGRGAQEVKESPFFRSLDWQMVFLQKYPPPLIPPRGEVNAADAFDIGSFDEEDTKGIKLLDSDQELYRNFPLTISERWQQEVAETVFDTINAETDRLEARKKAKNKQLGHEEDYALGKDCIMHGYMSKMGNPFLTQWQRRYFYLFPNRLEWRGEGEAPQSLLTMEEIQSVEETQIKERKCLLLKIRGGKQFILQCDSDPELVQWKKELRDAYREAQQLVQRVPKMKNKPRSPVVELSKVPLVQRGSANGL
Sequence of CASK (O14936 whole entry): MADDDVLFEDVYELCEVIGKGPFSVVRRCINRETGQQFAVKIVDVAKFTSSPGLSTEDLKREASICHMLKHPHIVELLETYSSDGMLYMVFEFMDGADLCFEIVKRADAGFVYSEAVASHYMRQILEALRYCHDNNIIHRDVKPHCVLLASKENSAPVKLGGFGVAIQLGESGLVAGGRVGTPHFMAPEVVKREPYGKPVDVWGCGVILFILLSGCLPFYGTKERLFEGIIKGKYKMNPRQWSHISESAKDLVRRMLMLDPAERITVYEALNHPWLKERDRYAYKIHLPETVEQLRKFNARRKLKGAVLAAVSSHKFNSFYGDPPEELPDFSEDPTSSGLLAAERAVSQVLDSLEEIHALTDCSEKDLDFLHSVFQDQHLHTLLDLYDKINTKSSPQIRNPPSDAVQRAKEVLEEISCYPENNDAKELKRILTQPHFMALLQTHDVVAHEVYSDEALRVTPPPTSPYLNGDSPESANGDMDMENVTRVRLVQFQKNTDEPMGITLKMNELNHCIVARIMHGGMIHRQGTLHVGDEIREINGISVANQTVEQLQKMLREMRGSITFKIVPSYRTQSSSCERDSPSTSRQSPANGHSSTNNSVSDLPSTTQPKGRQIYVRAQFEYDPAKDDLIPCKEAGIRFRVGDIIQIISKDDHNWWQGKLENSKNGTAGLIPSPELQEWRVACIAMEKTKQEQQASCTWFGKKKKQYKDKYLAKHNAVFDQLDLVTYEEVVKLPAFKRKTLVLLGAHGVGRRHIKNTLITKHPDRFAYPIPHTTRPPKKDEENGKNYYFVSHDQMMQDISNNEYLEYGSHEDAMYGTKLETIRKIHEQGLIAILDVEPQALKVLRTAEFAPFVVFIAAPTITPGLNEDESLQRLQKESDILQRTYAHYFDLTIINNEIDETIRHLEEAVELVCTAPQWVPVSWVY
T3 sequence (Q8IY84 whole entry): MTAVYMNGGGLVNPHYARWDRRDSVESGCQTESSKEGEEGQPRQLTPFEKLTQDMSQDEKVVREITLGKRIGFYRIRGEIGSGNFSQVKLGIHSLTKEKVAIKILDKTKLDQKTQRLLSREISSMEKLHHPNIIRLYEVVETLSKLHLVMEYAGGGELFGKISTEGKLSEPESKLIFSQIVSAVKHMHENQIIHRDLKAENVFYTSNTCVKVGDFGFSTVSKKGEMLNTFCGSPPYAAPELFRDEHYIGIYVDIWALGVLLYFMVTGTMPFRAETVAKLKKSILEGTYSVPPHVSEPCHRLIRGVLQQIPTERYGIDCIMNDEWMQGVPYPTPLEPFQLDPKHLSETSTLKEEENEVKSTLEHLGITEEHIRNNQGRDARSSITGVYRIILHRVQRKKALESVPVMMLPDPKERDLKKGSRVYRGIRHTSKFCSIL
Sequence of MARK4 (Q96L34 whole entry): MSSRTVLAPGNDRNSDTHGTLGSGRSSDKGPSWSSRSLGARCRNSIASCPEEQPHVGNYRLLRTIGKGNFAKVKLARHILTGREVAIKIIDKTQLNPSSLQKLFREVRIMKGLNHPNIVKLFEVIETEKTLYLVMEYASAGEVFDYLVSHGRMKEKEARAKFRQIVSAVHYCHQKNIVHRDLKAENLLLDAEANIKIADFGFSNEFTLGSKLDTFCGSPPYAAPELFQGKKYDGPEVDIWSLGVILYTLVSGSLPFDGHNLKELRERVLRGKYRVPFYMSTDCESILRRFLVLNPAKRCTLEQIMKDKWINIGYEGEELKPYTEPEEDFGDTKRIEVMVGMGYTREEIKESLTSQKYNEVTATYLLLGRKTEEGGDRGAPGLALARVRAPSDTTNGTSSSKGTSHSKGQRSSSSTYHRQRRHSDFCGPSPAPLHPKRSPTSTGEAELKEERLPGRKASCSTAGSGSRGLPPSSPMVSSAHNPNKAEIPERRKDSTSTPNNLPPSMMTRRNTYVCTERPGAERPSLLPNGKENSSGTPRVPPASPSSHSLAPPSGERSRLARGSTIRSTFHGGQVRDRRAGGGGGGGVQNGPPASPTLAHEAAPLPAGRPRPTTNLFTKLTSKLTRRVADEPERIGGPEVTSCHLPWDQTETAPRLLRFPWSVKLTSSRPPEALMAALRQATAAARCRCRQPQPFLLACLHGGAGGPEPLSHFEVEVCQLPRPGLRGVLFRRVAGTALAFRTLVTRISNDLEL
Sequence of ANKK1 (Q8NFD2 whole entry): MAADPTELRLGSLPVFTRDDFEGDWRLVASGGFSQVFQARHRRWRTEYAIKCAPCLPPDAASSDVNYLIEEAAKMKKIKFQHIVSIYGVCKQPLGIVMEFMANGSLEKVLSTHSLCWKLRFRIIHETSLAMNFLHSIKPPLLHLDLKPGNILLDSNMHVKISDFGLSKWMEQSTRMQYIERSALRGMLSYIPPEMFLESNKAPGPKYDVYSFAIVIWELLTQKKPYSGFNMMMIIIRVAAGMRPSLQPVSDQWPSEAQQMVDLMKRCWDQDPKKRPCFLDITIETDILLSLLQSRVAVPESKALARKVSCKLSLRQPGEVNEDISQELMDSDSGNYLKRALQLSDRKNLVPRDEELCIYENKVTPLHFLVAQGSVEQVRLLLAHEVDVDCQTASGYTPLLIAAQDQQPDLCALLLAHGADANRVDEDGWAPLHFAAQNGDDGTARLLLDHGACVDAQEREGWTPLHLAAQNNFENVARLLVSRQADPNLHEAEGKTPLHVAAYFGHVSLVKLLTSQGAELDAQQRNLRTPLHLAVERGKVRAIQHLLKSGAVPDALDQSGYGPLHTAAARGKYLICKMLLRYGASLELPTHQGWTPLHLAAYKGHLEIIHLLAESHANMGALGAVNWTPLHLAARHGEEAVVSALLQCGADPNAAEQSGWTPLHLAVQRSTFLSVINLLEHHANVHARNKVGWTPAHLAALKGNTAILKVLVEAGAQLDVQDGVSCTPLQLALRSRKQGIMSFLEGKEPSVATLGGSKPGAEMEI

remaining binding at 100 µM (FAK): 89%
remaining binding at 100 µM (PIK3CA(I800L)): 83%
remaining binding at 100 µM (CASK): 88%
remaining binding at 100 µM (CLK4): 89%
remaining binding at 100 µM (GRK2): 100%
remaining binding at 100 µM (ANKK1): 77%
remaining binding at 100 µM (MARK1): 85%
remaining binding at 100 µM (EPHA5): 100%
remaining binding at 100 µM (CSK): 76%
remaining binding at 100 µM (CDK8): 100%
remaining binding at 100 µM (MAK): 100%
remaining binding at 10 µM (EPHB6; [1]): 56%
remaining binding at 100 µM (EPHB6; [2]): 16%
remaining binding at 100 µM (MARK4): 87%
remaining binding at 100 µM (TAK1): 78%
remaining binding at 100 µM (AXL): 83%
remaining binding at 100 µM (ALK): 76%
remaining binding at 100 µM (NIM1): 65%
remaining binding at 10 µM (CSNK1G2; [1]): 62%
remaining binding at 100 µM (CSNK1G2; [2]): 4.8%
remaining binding at 100 µM (MAP4K5): 100%
SMILES: C[C@@H]1CC(=O)NN=C1c1ccc(NN=C(C#N)C#N)cc1 [levosimendan]
